The values that follow come from EP3134439B1, “ANTI-PSYK ANTIBODY MOLECULES AND USE OF SAME FOR SYK-TARGETED THERAPY” (Millennium Pharmaceuticals, Inc., priority 2014, dated 2015).

The subject of one test is TMD8 (ABC). In words: Anti-tumor activity, TMD8 xenograft model. The test is classed as in vivo. Conditions: 60 mg/kg; TGI calculated on Day 14.
Another test concerns HBL-1 (ABC). Briefly: Anti-tumor activity, HBL-1 xenograft model. The test is classed as in vivo.
The subject of a further test is DLBCL cell lines. Briefly: Inhibition of cellular proliferation. In kind it is cell-based. Conditions: subset of relevant models.
The test system of test [1] is OCI-LY10 ABC DLBCL xenografts. Briefly: Anti-tumor activity, OCI-LY10 xenograft model. In kind it is in vivo, SCID mice. The source says:
(§1) Mean tumor volumes (mm^3) ± SEM (N=8/group) are shown where treatment was initiated when mean tumor volume was approximately 200 mm3.

The next test deals with WSU. Briefly: Anti-tumor activity, WSU xenograft model. In kind it is in vivo.
Another test concerns the target VEGFR. In words: VEGFR enzyme inhibition. In kind it is biochemical.
Test [2] deals with PHTX-95L primary DLBCL tumor xenografts. In words: Anti-tumor activity, PHTX-95L xenograft model. The test is classed as in vivo, SCID mice.
Source text: as §1

The test system of test [3] is OCI-LY19 GCB DLBCL xenografts. Briefly: Anti-tumor activity, OCI-LY19 xenograft model. The test is classed as in vivo, SCID mice.
Source text: as §1

The mark [4] stands for this setting: 60 mg/kg orally once daily for 21 days.
[5] abbreviates: 120 mg/kg orally once daily for 21 days.
Where [6] appears, read: daily oral administration of 60 mg/kg.

Molecules are shown by their SMILES. Marks after values point to notes of the source that are not given here.

Take `Cn1cc(-c2nc(N[C@@H]3CCCC[C@@H]3N)c(F)c3c2C(=O)NC3)cn1` [Compound A, 6-((1R,2S)-2-Aminocyclohexylamino)-7-fluoro-4-(1-methyl-1H-pyrazol-4-yl)-1H-pyrrolo[3,4-c]pyridin-3(2H)-one]: the TGI in the test with TMD8 (ABC) is reported as 45%*; in the test on HBL-1 (ABC) (60 mg/kg), 32%; in the test on HBL-1 (ABC) (120 mg/kg) it was 36%; in test [1] (setting [4]), 50%; in test [1] (setting [5]) it was 59%; in test [1] (setting [6]), 50%. Further, the TGI with WSU (60 mg/kg) was 52%; with WSU (setting [6]), “approximately 50%”; in test [2] (setting [4]) it was 56%; in test [2] (setting [5]), 70%; in test [2] (daily oral administration, 120 mg/kg), 70%; in test [3] (60 mg/kg orally once daily for 14 days, TGI calculated on Day 16), 33%**. Further, the TGI in test [3] (setting [6]) was 37%. In the test on DLBCL cell lines, this compound registered an EC50 of 25 to 400 nM. Also, the IC50 on VEGFR was found to be 140 nM.
